# Experimental data: patent US20080076760A1, “2,3,4,5-TETRAHYDRO-1H-1,5-BENZODIAZEPINE DERIVATIVE AND MEDICINAL COMPOSITION” (priority 2004, published 2008)
# Columns and labels:
# [1] = molecular target: human vasopressin V1a receptor (Homo sapiens, UniProt P37288); assay: Receptor binding study, [3H]AVP displacement on CHO cell membranes, human V1a; settings: [3H]AVP displacement, CHO cell membrane, 25° C., one hour; read-out: Human V1a Ki
# In short: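 Membrane binding in 50 mM Tris-HCl pH 7.4 with MgCl2 and 0.1% BSA, incubated 1 h at 25° C. Bound ligand collected by rapid filtration on glass fiber filters, washed with ice-cold buffer, and counted for radioactivity. Nonspecific binding defined with 1 μM unlabeled AVP.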
# [2] = molecular target: human vasopressin V2 receptor (Homo sapiens, UniProt P30518); assay: Receptor binding study, [3H]AVP displacement on CHO cell membranes, human V2; settings: [3H]AVP displacement, CHO cell membrane, 25° C., one hour; read-out: Human V2 Ki
# In short: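 Membranes from CHO cells expressing human V2 receptor incubated with [3H]AVP (0.5-1.0 nM) and test compound at various concentrations in 50 mM Tris-HCl pH 7.4 with MgCl2 and 0.1% BSA, 1 h at 25 °C. Bound radioactivity counted after glass-fibre filtration; nonspecific binding defined with 1 μM unlabelled AVP.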
# human vasopressin V1a receptor, sequence (P37288 whole entry): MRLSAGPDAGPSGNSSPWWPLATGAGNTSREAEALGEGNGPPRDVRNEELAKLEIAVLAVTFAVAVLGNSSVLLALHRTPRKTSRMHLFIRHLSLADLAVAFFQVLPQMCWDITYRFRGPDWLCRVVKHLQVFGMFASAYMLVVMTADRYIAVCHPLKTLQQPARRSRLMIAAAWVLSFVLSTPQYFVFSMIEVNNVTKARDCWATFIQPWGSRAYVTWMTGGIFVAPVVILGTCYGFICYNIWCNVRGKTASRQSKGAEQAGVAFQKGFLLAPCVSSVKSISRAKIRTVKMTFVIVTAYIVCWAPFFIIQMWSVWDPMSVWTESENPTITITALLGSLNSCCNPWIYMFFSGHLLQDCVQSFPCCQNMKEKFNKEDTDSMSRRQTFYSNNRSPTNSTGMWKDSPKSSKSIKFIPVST
# human vasopressin V2 receptor, sequence (P30518 whole entry): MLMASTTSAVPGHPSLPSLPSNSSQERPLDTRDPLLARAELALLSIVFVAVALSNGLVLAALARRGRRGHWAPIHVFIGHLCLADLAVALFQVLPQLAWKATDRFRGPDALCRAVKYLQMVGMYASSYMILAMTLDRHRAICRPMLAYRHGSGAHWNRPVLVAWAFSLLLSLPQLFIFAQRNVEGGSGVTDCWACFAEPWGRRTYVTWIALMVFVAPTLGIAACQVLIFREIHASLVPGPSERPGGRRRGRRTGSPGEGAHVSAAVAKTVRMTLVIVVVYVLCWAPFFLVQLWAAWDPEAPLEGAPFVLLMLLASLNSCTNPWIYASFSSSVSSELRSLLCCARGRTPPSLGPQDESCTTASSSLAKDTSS
smiles,measurement,setting,value
"C[C@H]1CCN(C(=O)c2ccc(-c3ccc(N)cc3)c(OCCN3CCOCC3)c2)c2ccccc2N1 [Example 60, 4′-[[(4S)-4-methyl-2,3,4,5-tetrahydro-1H-1,5-benzodiazepin-1-yl]carbonyl]-2′-[2-(4-morpholinyl)ethoxy][1,1′-biphenyl]-4-amine]",Ki,[1],0.27 nM
same,Ki,[2],84 nM
"C[C@H]1CCN(C(=O)c2ccc(-c3ccc4[nH]ccc4c3)c(OCCCN3CCCN(C)CC3)c2)c2ccccc2N1 [Example 109, (4S)-1-[4-(1H-indol-5-yl)-3-[3-(4-methyl-1,4-diazepane-1-yl)propoxy]benzoyl]-4-methyl-2,3,4,5-tetrahydro-1H-1,5-benzodiazepine]",Ki,[1],0.13 nM
same,Ki,[2],7.1 nM
"CCCN(CC)CCCOc1cc(C(=O)N2CC[C@H](C)Nc3ccccc32)ccc1-c1ccc2[nH]ccc2c1 [Example 125, N-ethyl-3-[2-(1H-indol-5-yl)-5-[[(4S)-4-methyl-2,3,4,5-tetrahydro-1H-1,5-benzodiazepin-1-yl]carbonyl]phenoxy]-N-propyl-1-propaneamine]",Ki,[1],0.18 nM
same,Ki,[2],15 nM
"C[C@H]1CCN(C(=O)c2ccc(-c3ccc4[nH]ccc4c3)c(OCCCN3CCC[C@H]3C(N)=O)c2)c2ccccc2N1 [Example 88, (2S)-1-[3[2-(1H-indol-5-yl)-5-[[(4S)-4-methyl-2,3,4,5-tetrahydro-1H-1,5-benzodiazepin-1-yl]carbonyl]phenoxy]propyl]-2-pyrrolidine carboxamide]",Ki,[1],0.3 nM
same,Ki,[2],3 nM
CCCN(C)CCCCCOc1cc(C(=O)N2CC[C@H](C)Nc3ccccc32)ccc1-c1ccc2[nH]ccc2c1 [Example 126],Ki,[1],0.24 nM
same,Ki,[2],7 nM
"CCCN(C)CCCOc1cc(C(=O)N2CC[C@H](C)Nc3ccccc32)ccc1-c1ccc2[nH]ccc2c1 [Example 81, N-[3-[2-(1H-indol-5-yl)-5-[[(4S)-4-methyl-2,3,4,5-tetrahydro-1H-1,5-benzodiazepin-1-yl]carbonyl]phenoxy]propyl]-N-methyl-N-propylamine]",Ki,[1],0.17 nM
same,Ki,[2],8 nM
"CCCCCN(C)CCCCOc1cc(C(=O)N2CC[C@H](C)Nc3ccccc32)ccc1-c1ccc2[nH]ccc2c1 [Example 174, N-[4-[2-(1H-indol-5-yl)-5-[[(4S)-4-methyl-2,3,4,5-tetrahydro-1H-1,5-benzodiazepin-1-yl]carbonyl]phenoxy]butyl]-N-methyl-1-pentaneamine]",Ki,[1],0.35 nM
same,Ki,[2],11 nM
"CC(=O)Nc1cc(C(=O)N2CC[C@H](C)Nc3ccccc32)ccc1-c1ccc2[nH]ccc2c1 [Example 17, N-[2-(1H-indol-5-yl)-5-[[(4S)-4-methyl-2,3,4,5-tetrahydro-1H-1,5-benzodiazepin-1-yl]carbonyl]phenyl]acetamide]",Ki,[1],0.13 nM
same,Ki,[2],11 nM
"CC1CCN(C(=O)c2ccc(-c3ccc4[nH]ccc4c3)c(OCCCCCCN)c2)c2ccccc2N1 (centres unmarked) [Example 39, 6-[2-(1H-indol-5-yl)-5-[(4-methyl-2,3,4,5-tetrahydro-1H-1,5-benzodiazepin-1-yl)carbonyl]phenoxy]hexylamine]",Ki,[1],0.22 nM
same,Ki,[2],5.2 nM
"CCN(CC)CCCOc1cc(C(=O)N2CC[C@H](C)Nc3ccccc32)ccc1-c1ccc2[nH]ccc2c1 [Example 116, N,N-diethyl-3-[2-(1H-indol-5-yl)-5-[[(4S)-4-methyl-2,3,4,5-tetrahydro-1H-1,5-benzodiazepin-1-yl]carbonyl]phenoxy]-1-propaneamine]",Ki,[1],0.16 nM
same,Ki,[2],11 nM
"CCCCCN(C)CCCOc1cc(C(=O)N2CC[C@H](C)Nc3ccccc32)ccc1-c1ccc2[nH]ccc2c1 [Example 108, N-[3-[2-(1H-indol-5-yl)-5-[[(4S)-4-methyl-2,3,4,5-tetrahydro-1H-1,5-benzodiazepin-1-yl]carbonyl]phenoxy]propyl]-N-methyl-1-pentaneamine]",Ki,[1],0.42 nM
same,Ki,[2],21 nM
"COc1cc(C(=O)N2CCC(C)Nc3ccccc32)ccc1-c1ccc2[nH]ccc2c1 (centres unmarked) [Example 1, 1-[4-(1H-indol-5-yl)-3-methoxybenzoyl]-4-methyl-2,3,4,5-tetrahydro-1H-1,5-benzodiazepine]",Ki,[1],0.39 nM
same,Ki,[2],1.7 nM
"CCC1CCN(C(=O)c2ccc(-c3ccc4[nH]ccc4c3)c(NC(C)=O)c2)c2ccccc2N1 (centres unmarked) [Example 8, N-[5-[(4-ethyl-2,3,4,5-tetrahydro-1H-1,5-benzodiazepin-1-yl)carbonyl]-2-(1H-indol-5-yl)-phenyl]acetamide]",Ki,[1],0.16 nM
same,Ki,[2],15 nM
"CC1CCN(C(=O)c2ccc(-c3ccc4[nH]ccc4c3)c(OCCCCCN)c2)c2ccccc2N1 (centres unmarked) [Example 37, 5-[2-(1H-indol-5-yl)-5-[(4-methyl-2,3,4,5-tetrahydro-1H-1,5-benzodiazepin-1-yl)carbonyl]phenoxy]-1-pentaneamine]",Ki,[1],0.24 nM
same,Ki,[2],4.3 nM
"CCCCN(C)CCCCOc1cc(C(=O)N2CC[C@H](C)Nc3ccccc32)ccc1-c1ccc2[nH]ccc2c1 [Example 173, N-butyl-4-[2-(1H-indol-5-yl)-5-[[(4S)-4-methyl-2,3,4,5-tetrahydro-1H-1,5-benzodiazepin-1-yl]carbonyl]phenoxy]-N-methyl-1-butaneamine]",Ki,[1],0.21 nM
same,Ki,[2],10 nM
"C[C@H]1CCN(C(=O)c2ccc(-c3ccc4[nH]ccc4c3)c(OCCCN3CCOC3=O)c2)c2ccccc2N1 [Example 92, 3-[3-[2-(1H-indol-5-yl)-5-[[(4S)-4-methyl-2,3,4,5-tetrahydro-1H-1,5-benzodiazepin-1-yl]carbonyl]phenoxy]propyl]-1,3-oxazolidin-2-one]",Ki,[1],0.21 nM
same,Ki,[2],5.6 nM
"CC(=O)Nc1cc(C(=O)N2CC[C@@H](C)Nc3ccccc32)ccc1-c1ccc2[nH]ccc2c1 [Example 16, N-[2-(1H-indol-5-yl)-5-[[(4R)-4-methyl-2,3,4,5-tetrahydro-1H-1,5-benzodiazepin-1-yl]carbonyl]phenyl]acetamide]",Ki,[1],0.33 nM
same,Ki,[2],63 nM
"CCCCN1CCN(CCCOc2cc(C(=O)N3CC[C@H](C)Nc4ccccc43)ccc2-c2ccc3[nH]ccc3c2)CC1 [Example 122, (4S)-1-[3-[3-(4-butyl-1-piperazinyl)propoxy]-4-(1H-indol-5-yl)benzoyl]-4-methyl-2,3,4,5-tetrahydro-1H-1,5-benzodiazepine]",Ki,[1],0.21 nM
same,Ki,[2],5.1 nM
COCCN(CCCOc1cc(C(=O)N2CC[C@H](C)Nc3ccccc32)ccc1-c1ccc2[nH]ccc2c1)CCOC [Example 84],Ki,[1],0.1 nM
same,Ki,[2],6.5 nM
"CC(C)N(C)CCCOc1cc(C(=O)N2CC[C@H](C)Nc3ccccc32)ccc1-c1ccc2[nH]ccc2c1 [Example 85, N-[3-[2-(1H-indol-5-yl)-5-[[(4S)-4-methyl-2,3,4,5-tetrahydro-1H-1,5-benzodiazepin-1-yl]carbonyl]phenoxy]propyl]-N-isopropyl-N-methylamine]",Ki,[1],0.052 nM
same,Ki,[2],7.7 nM
"CNc1ccc(-c2ccc(C(=O)N3CC[C@H](C)Nc4ccccc43)cc2OCCN2CCOCC2)cc1 [Example 74, N-methyl-4′-[[(4S)-4-methyl-2,3,4,5-tetrahydro-1H-1,5-benzodiazepin-1-yl]carbonyl]-2′-[2-(4-morpholinyl)ethoxy][1,1′-biphenyl]-4-amine]",Ki,[1],0.24 nM
same,Ki,[2],6.1 nM
"CCCN(C)CCCOc1cc(C(=O)N2CC[C@H](C)Nc3ccccc32)ccc1-c1ccc(NC)cc1 [Example 105, N-methyl-2′-[3-[methyl(propyl)amino]propoxy]-4′-[[(4S)-4-methyl-2,3,4,5-tetrahydro-1H-1,5-benzodiazepin-1-yl]carbonyl][1,1′-biphenyl]-4-amine]",Ki,[1],0.16 nM
same,Ki,[2],54 nM
"COc1cc(C(=O)N2CCC(C)(C)Nc3ccccc32)ccc1-c1ccc2[nH]ccc2c1 [Example 2, 1-[4-(1H-indol-5-yl)-3-methoxybenzoyl]-4,4-dimethyl-2,3,4,5-tetrahydro-1H-1,5-benzodiazepine]",Ki,[1],0.31 nM
same,Ki,[2],4.4 nM
"CCCN(C)CCCOC(=O)c1cc(C(=O)N2CC[C@H](C)Nc3ccccc32)ccc1-c1ccc2[nH]ccc2c1 [Example 132, 3-[methyl(propyl)amino]propyl 2-(1H-indol-5-yl)-5-[[(4S)-4-methyl-2,3,4,5-tetrahydro-1H-1,5-benzodiazepin-1-yl]carbonyl]benzoate]",Ki,[1],0.25 nM
same,Ki,[2],172 nM
"CCCN1CCN(CCCOc2cc(C(=O)N3CC[C@@H](C)Nc4ccccc43)ccc2-c2ccc3[nH]ccc3c2)CC1 [Example 128, (4R)-1-[4-(1H-indol-5-yl)-3-[3-(4-propyl-1-piperazinyl)propoxy]benzoyl]-4-methyl-2,3,4,5-tetrahydro-1H-1,5-benzodiazepine]",Ki,[1],0.2 nM
same,Ki,[2],39 nM
"C[C@H]1CCN(C(=O)c2ccc(-c3ccc4[nH]ccc4c3)c(OCCCCN3CCOCC3)c2)c2ccccc2N1 [Example 67, (4S)-1-[4-(1H-indol-5-yl)-3-[4-(4-morpholinyl)butoxy]benzoyl]-4-methyl-2,3,4,5-tetrahydro-1H-1,5-benzodiazepine]",Ki,[1],0.19 nM
same,Ki,[2],8.7 nM
"C[C@@H]1CCN(C(=O)c2ccc(-c3ccc4[nH]ccc4c3)c(OCCCN)c2)c2ccccc2N1 [Example 55, 3-[2-(1H-indol-5-yl)-5-[[(4R)-4-methyl-2,3,4,5-tetrahydro-1H-1,5-benzodiazepin-1-yl]carbonyl]phenoxy]propylamine]",Ki,[1],0.31 nM
same,Ki,[2],25 nM
"C[C@@H]1CN(CCCOc2cc(C(=O)N3CC[C@H](C)Nc4ccccc43)ccc2-c2ccc3[nH]ccc3c2)C[C@H](C)O1 [Example 115, (4S)-1-[3-[3-[(2R,6S)-2,6-dimethylmorpholinyl]propoxy]-4-(1H-indol-5-yl)benzoyl]-4-methyl-2,3,4,5-tetrahydro-1H-1,5-benzodiazepine]",Ki,[1],0.27 nM
same,Ki,[2],4.9 nM
